ChEMBL document CHEMBL5441381, “ASAP - In vitro antiviral effect” (2024)

Legend:
SARS-CoV-2 [1] = experiment: (§1) Functional immunofluorescence assay to measure dose dependent changes in antiviral-drug inhibitory efficacy against hCoV-19/USA-WA1/2020 in HeLa-ACE2 cells which are seeded prior to drug treatment, then infected with hCoV-19/USA-WA1/2020. Cells are fixed with 10 % formaldehyde, washed with PBS, permeabilized with permeabilization buffer, then washed with wash buffer. The cells are incubated with nucleoprotein primary antibody IC7C7. Following primary staining, cells are washed with wash buffer and incubated in a solution of with Alexa fluor 488 and DAPI. Infected and uninfected cells are visualized and analyzed by Gen5 software. The assay has been performed by Icahn School of Medicine at Mount Sinai.; format: organism-based, Homo sapiens
SARS-CoV-2 [2] = experiment: as §1, with “iPSC-Pneumocyte” for “HeLa-ACE2”, “to” for “to drug”; format: organism-based, Homo sapiens; details: Severe acute respiratory syndrome coronavirus 2, Pneumocyte
[3] = Severe acute respiratory syndrome coronavirus 2, HeLa-ACE2

Compound: CCNC(=O)c1cc2c(N[C@@H](c3ccc4c(c3)S(=O)(=O)CCO4)C(C)C)ncnc2[nH]1
- EC50 (SARS-CoV-2 [1]; [3]): > 20 µM
- EC90 (SARS-CoV-2 [1]; Severe acute respiratory syndrome coronavirus 2, HeLa-ACE2, Baseline response 0 %, Hill slope -0.398, Maximum measured 111.753 %, Maximum response 100 %, Minimum measured 79.377 %, R squared 0.175): > 20 µM

Compound: Cc1nn(C)cc1-c1cc2c(N[C@@H](c3ccc4c(c3)S(=O)(=O)CCC4)C(C)C)ncnc2[nH]1
- EC50 (SARS-CoV-2 [1]; [3]): > 20 µM
- EC90 (SARS-CoV-2 [1]; Severe acute respiratory syndrome coronavirus 2, HeLa-ACE2, Maximum measured 131.643 %, Minimum measured 93.649 %): > 20 µM

Compound: CCNC(=O)c1cc2c(N[C@@H](c3ccc4c(c3)S(=O)(=O)CCC4)C(C)C)ncnc2[nH]1
- EC50 (SARS-CoV-2 [1]; [3]): > 20 µM
- EC90 (SARS-CoV-2 [1]; Severe acute respiratory syndrome coronavirus 2, HeLa-ACE2, Baseline response 0 %, Hill slope -4.495, Maximum measured 108.517 %, Maximum response 100 %, Minimum measured 90.612 %, R squared 0.096): > 20 µM

Compound: CNC(=O)c1cccc(-c2cc3c(N[C@@H](c4ccc5c(c4)S(=O)(=O)CCC5)C(C)C)ncnc3[nH]2)c1
- EC50 (SARS-CoV-2 [1]; [3]): > 20 µM
- EC90 (SARS-CoV-2 [1]; Severe acute respiratory syndrome coronavirus 2, HeLa-ACE2, Baseline response 0 %, Hill slope -1.505, Maximum measured 108.746 %, Maximum response 100 %, Minimum measured 56.34 %, R squared 0.642): > 20 µM

Compound: CC(C)[C@@H](Nc1ncnc2[nH]c(-c3cnn(C)c3)cc12)c1ccc2c(c1)S(=O)(=O)NCC2
- EC50 (SARS-CoV-2 [1]; [3]): > 20 µM
- EC90 (SARS-CoV-2 [1]; Severe acute respiratory syndrome coronavirus 2, HeLa-ACE2, Baseline response 0 %, Hill slope -6.715, Maximum measured 105.419 %, Maximum response 100 %, Minimum measured 69.993 %, R squared 0.42): > 20 µM

Compound: CC(C)[C@H](Nc1ncnc2[nH]c(-c3cnn(C)c3C#N)cc12)c1ccc2c(c1)S(=O)(=O)CCC2
- EC50 (SARS-CoV-2 [1]; [3]): 6.21 µM
- EC90 (SARS-CoV-2 [1]; Severe acute respiratory syndrome coronavirus 2, HeLa-ACE2, Baseline response 0 %, Hill slope -14.93, Maximum measured 129.006 %, Maximum response 100 %, Minimum measured 5.734 %, R squared 0.877): 7.19 µM

Compound: CC(C)(C)[C@H](Nc1ncnc2[nH]c(-c3cnn(CC(N)=O)c3)cc12)c1ccc2c(c1)OCCO2
- EC50 (SARS-CoV-2 [1]; [3]): > 20 µM
- EC90 (SARS-CoV-2 [1]; Severe acute respiratory syndrome coronavirus 2, HeLa-ACE2, Baseline response 0 %, Hill slope -0.655, Maximum measured 108.484 %, Maximum response 100 %, Minimum measured 91.129 %, R squared 0.123): > 20 µM

Compound: CNCc1cc(-c2cc3c(N[C@H](c4ccc5c(c4)S(=O)(=O)CCC5)C(C)C)ncnc3[nH]2)co1
- EC50 (SARS-CoV-2 [1]; [3]): 11.1 µM
- EC90 (SARS-CoV-2 [1]; Severe acute respiratory syndrome coronavirus 2, HeLa-ACE2, Baseline response 0 %, Hill slope -0.715, Maximum measured 94.818 %, Maximum response 100 %, Minimum measured 27.713 %, R squared 0.683): > 20 µM

Compound: CC(C)[C@H](Nc1ncnc2[nH]c(-c3cnn(C)c3C#N)cc12)c1ccc2c(n1)NC(=O)CO2
- EC50 (SARS-CoV-2 [1]; [3]): 0.858 µM
- EC90 (SARS-CoV-2 [1]; Severe acute respiratory syndrome coronavirus 2, HeLa-ACE2, Baseline response 0 %, Hill slope -0.619, Maximum measured 70.604 %, Maximum response 100 %, Minimum measured 3.388 %, R squared 0.805): > 20 µM

Compound: CC(C)[C@@H](Nc1ncnc2[nH]ccc12)c1ccc2c(c1)S(=O)(=O)CCO2
- EC50 (SARS-CoV-2 [1]; [3]): > 20 µM
- EC90 (SARS-CoV-2 [1]; Severe acute respiratory syndrome coronavirus 2, HeLa-ACE2, Baseline response 0 %, Hill slope -0.245, Maximum measured 99.283 %, Maximum response 100 %, Minimum measured 83.757 %, R squared 0.186): > 20 µM

Compound: COc1ccc([C@@H](Cc2nnn[nH]2)NC(=O)c2ncnc3[nH]ccc23)cc1
- EC50 (SARS-CoV-2 [1]; [3]): > 20 µM
- EC90 (SARS-CoV-2 [1]; Severe acute respiratory syndrome coronavirus 2, HeLa-ACE2, Maximum measured 136.92 %, Minimum measured 93.837 %): > 20 µM

Compound: CC(C)[C@H](Nc1ncnc2[nH]c(-c3cnn(C)c3C#N)cc12)c1ccc2c(c1)NC(=O)CO2
- EC50 (SARS-CoV-2 [1]; [3]): 1.33 µM
- EC90 (SARS-CoV-2 [1]; Severe acute respiratory syndrome coronavirus 2, HeLa-ACE2, Baseline response 0 %, Hill slope -0.558, Maximum measured 72.17 %, Maximum response 100 %, Minimum measured 6.652 %, R squared 0.72): > 20 µM

Compound: CCNC(=O)c1cc2c(N[C@@H](c3ccc4c(c3)S(=O)(=O)NCC4)C(C)C)ncnc2[nH]1
- EC50 (SARS-CoV-2 [1]; [3]): > 20 µM
- EC90 (SARS-CoV-2 [1]; Severe acute respiratory syndrome coronavirus 2, HeLa-ACE2, Maximum measured 101.15 %, Minimum measured 78.382 %): > 20 µM

Compound: CC(C)[C@H](Nc1ncnc2[nH]c(-c3cnn(C)c3)cc12)c1ccc2c(c1)S(=O)(=O)CCC2
- EC50 (SARS-CoV-2 [1]; [3]): > 20 µM
- EC90 (SARS-CoV-2 [1]; Severe acute respiratory syndrome coronavirus 2, HeLa-ACE2, Baseline response 0 %, Hill slope -1.829, Maximum measured 111.115 %, Maximum response 100 %, Minimum measured 52.798 %, R squared 0.593): > 20 µM

Compound: CC(C)[C@@H](Nc1ncnc2[nH]cc(C(=O)NC3CC3)c12)c1ccc2c(c1)S(=O)(=O)CCC2
- EC50 (SARS-CoV-2 [1]; [3]): 14.4 µM
- EC90 (SARS-CoV-2 [1]; Severe acute respiratory syndrome coronavirus 2, HeLa-ACE2, Baseline response 0 %, Hill slope -1.207, Maximum measured 103.36 %, Maximum response 100 %, Minimum measured 37.723 %, R squared 0.64): > 20 µM

Compound: CC(C)[C@@H](Nc1ncnc2[nH]c(-c3ccc4nnn(C)c4c3)cc12)c1ccc2c(c1)S(=O)(=O)CCC2
- EC50 (SARS-CoV-2 [1]; [3]): 3.64 µM
- EC90 (SARS-CoV-2 [1]; Severe acute respiratory syndrome coronavirus 2, HeLa-ACE2, Baseline response 0 %, Hill slope -0.69, Maximum measured 110.665 %, Maximum response 100 %, Minimum measured 33.895 %, R squared 0.849): > 20 µM

Compound: CC(C)[C@@H](Nc1ncnc2[nH]c(-c3cnn(CCC(N)=O)c3)cc12)c1ccc2c(c1)OCCO2
- EC50 (SARS-CoV-2 [1]; [3]): > 20 µM
- EC90 (SARS-CoV-2 [1]; Severe acute respiratory syndrome coronavirus 2, HeLa-ACE2, Maximum measured 112.19 %, Minimum measured 96.19 %): > 20 µM
- EC90 (SARS-CoV-2 [1]; Severe acute respiratory syndrome coronavirus 2, HeLa-ACE2, Maximum measured 121.913 %, Minimum measured 97.771 %): > 20 µM

Compound: CC(C)[C@@H](Nc1ncnc2[nH]c(-c3ccc4cncn4c3)cc12)c1ccc2c(c1)S(=O)(=O)CCC2
- EC50 (SARS-CoV-2 [1]; [3]): 7.12 µM
- EC90 (SARS-CoV-2 [1]; Severe acute respiratory syndrome coronavirus 2, HeLa-ACE2, Baseline response 0 %, Hill slope -0.819, Maximum measured 92.609 %, Maximum response 100 %, Minimum measured 28.375 %, R squared 0.905): > 20 µM

Compound: CC(C)[C@@H](Nc1ncnc2[nH]c(-c3cncc(S(C)(=O)=O)c3)cc12)c1ccc2c(c1)S(=O)(=O)CCC2
- EC50 (SARS-CoV-2 [1]; [3]): > 20 µM
- EC90 (SARS-CoV-2 [1]; Severe acute respiratory syndrome coronavirus 2, HeLa-ACE2, Maximum measured 119.816 %, Minimum measured 96.629 %): > 20 µM

Compound: CC(C)[C@@H](Nc1ncnc2[nH]c(-c3cnn(CC(N)=O)c3)cc12)c1ccc2c(c1)S(=O)(=O)CCC2
- EC50 (SARS-CoV-2 [1]; [3]): > 20 µM
- EC90 (SARS-CoV-2 [1]; Severe acute respiratory syndrome coronavirus 2, HeLa-ACE2, Maximum measured 127.59 %, Minimum measured 107.301 %): > 20 µM

Compound: CNC(=O)c1cc2c(N[C@@H](c3ccc4c(c3)S(=O)(=O)CCC4)C(C)C)ncnc2[nH]1
- EC50 (SARS-CoV-2 [1]; [3]): > 20 µM
- EC90 (SARS-CoV-2 [1]; Severe acute respiratory syndrome coronavirus 2, HeLa-ACE2, Maximum measured 104.869 %, Minimum measured 90.681 %): > 20 µM

Compound: CNC(=O)c1cccc(-c2cc3c(N[C@H](c4ccc5c(c4)S(=O)(=O)CCC5)C(C)C)ncnc3[nH]2)c1
- EC50 (SARS-CoV-2 [1]; [3]): > 20 µM
- EC90 (SARS-CoV-2 [1]; Severe acute respiratory syndrome coronavirus 2, HeLa-ACE2, Baseline response 0 %, Hill slope -6.666, Maximum measured 112.086 %, Maximum response 100 %, Minimum measured 84.591 %, R squared 0.065): > 20 µM

Compound: CC(C)[C@@H](Nc1ncnc2[nH]c(-c3cnn(CC(=O)N(C)C)c3)cc12)c1ccc2c(c1)OCCO2
- EC50 (SARS-CoV-2 [1]; [3]): > 20 µM
- EC90 (SARS-CoV-2 [1]; Severe acute respiratory syndrome coronavirus 2, HeLa-ACE2, Baseline response 0 %, Hill slope -0.679, Maximum measured 102.904 %, Maximum response 100 %, Minimum measured 72.697 %, R squared 0.733): > 20 µM
- EC90 (SARS-CoV-2 [1]; Severe acute respiratory syndrome coronavirus 2, HeLa-ACE2, Baseline response 0 %, Hill slope -5.712, Maximum measured 120.313 %, Maximum response 100 %, Minimum measured 86.961 %, R squared 0.099): > 20 µM

Compound: CC(C)[C@@H](Nc1ncnc2[nH]c(-c3cnn(CC(=O)N(C)C)c3)cc12)c1ccc2c(c1)S(=O)(=O)CCC2
- EC50 (SARS-CoV-2 [1]; [3]): > 20 µM
- EC90 (SARS-CoV-2 [1]; Severe acute respiratory syndrome coronavirus 2, HeLa-ACE2, Baseline response 0 %, Hill slope -0.117, Maximum measured 98.615 %, Maximum response 100 %, Minimum measured 84.991 %, R squared 0.091): > 20 µM

Compound: CC(C)[C@@H](Nc1ncnc2[nH]c(-c3cnn(C)c3C#N)cc12)c1ccc2c(n1)NC(=O)CO2
- EC50 (SARS-CoV-2 [1]; [3]): 2.46 µM
- EC90 (SARS-CoV-2 [1]; Severe acute respiratory syndrome coronavirus 2, HeLa-ACE2, Baseline response 0 %, EC90 CI (lower) 0.524 uM, EC90 CI (upper) 2.251 uM, Hill slope -2.687, Maximum measured 122.922 %, Maximum response 100 %, Minimum measured 8.802 %, R squared 0.907): 5.57 µM

Compound: Cn1ncc(-c2cc3c(N[C@@H](c4ccc5c(c4)OCCO5)C(C)(C)C)ncnc3[nH]2)c1C#N
- EC90 (SARS-CoV-2 [1]; Baseline response 0 %, EC90 CI (lower) 0.293 uM, EC90 CI (upper) 0.492 uM, Hill slope -2.031, Maximum measured 93.387 %, Maximum response 100 %, Minimum measured 1.413 %, R squared 0.981): 3.3 µM
- EC50 (SARS-CoV-2 [1]; [3]): 1.05 µM
- EC90 (SARS-CoV-2 [1]; Severe acute respiratory syndrome coronavirus 2, HeLa-ACE2, Baseline response 0 %, EC90 CI (lower) 0.423 uM, EC90 CI (upper) 0.632 uM, Hill slope -3.108, Maximum measured 91.316 %, Maximum response 100 %, Minimum measured 1.9 %, R squared 0.978): 2.12 µM
- EC50 (SARS-CoV-2 [1]; hela-ace2): 1.12 µM
- EC50 (SARS-CoV-2 [2]): 7.67 µM
- EC90 (SARS-CoV-2 [2]; Baseline response 0 %, EC90 CI (lower) 1.944 uM, EC90 CI (upper) 9.946 uM, Hill slope -3.954, Maximum measured 131.986 %, Maximum response 100 %, Minimum measured 2.165 %, R squared 0.772): 13.4 µM

Compound: CCNC(=O)c1cc2c(N[C@H](c3ccc4c(c3)OCCO4)C(C)C)ncnc2[nH]1
- EC50 (SARS-CoV-2 [1]; [3]): 19.7 µM
- EC90 (SARS-CoV-2 [1]; Severe acute respiratory syndrome coronavirus 2, HeLa-ACE2, Baseline response 0 %, Hill slope -1.464, Maximum measured 109.949 %, Maximum response 100 %, Minimum measured 49.504 %, R squared 0.869): > 20 µM
